Measured values taken from PMC12028158, “Synthesis and In Vitro Evaluation of the Anticancer Effect of Novel Phosphonium Vindoline Derivatives” (International Journal of Molecular Sciences, 2025).
Read-outs that look alike come from different tables or passages of the source.

Tests used:
Type in all cases: cell-based
HOP-62 = test: NCI60 one-dose screen; details: Homo sapiens
BT-549 [1] = test: NCI60 one-dose screen; details: Homo sapiens
CAKI-1 [2] = test: NCI60 one-dose screen; details: Homo sapiens
NCI-H226 [3] = test: NCI60 one-dose screen; details: Homo sapiens
MDA-MB-231/ATCC = test: NCI60 one-dose screen; details: Homo sapiens
U251 = test: NCI60 one-dose screen; details: Homo sapiens
EKVX = test: NCI60 one-dose screen; details: Homo sapiens, read-out: Growth percent
LOX IMVI = test: NCI60 one-dose screen; details: Homo sapiens, read-out: Growth percent
A498 [4] = test: NCI60 five-dose screen; details: Homo sapiens
Breast Cancer panel = test: NCI60 five-dose screen, panel mean; details: Homo sapiens
HCT-15 = test: NCI60 one-dose screen; details: Homo sapiens
CNS Cancer panel = test: NCI60 five-dose screen, panel mean; details: Homo sapiens
SW-620 = test: NCI60 five-dose screen; details: Homo sapiens
MDA-MB-468 = test: NCI60 one-dose screen; details: Homo sapiens
ACHN = test: NCI60 one-dose screen; details: Homo sapiens, read-out: Growth percent
PC-3 = test: NCI60 one-dose screen; details: Homo sapiens
BT-549 [5] = test: NCI60 five-dose screen; details: Homo sapiens
MOLT-4 = test: NCI60 five-dose screen; details: Homo sapiens
HOP-92 = test: NCI60 five-dose screen; details: Homo sapiens
DU-145 [6] = test: NCI60 five-dose screen; details: Homo sapiens
HL-60(TB) = test: NCI60 one-dose screen; details: Homo sapiens
RXF 393 [7] = test: NCI60 five-dose screen; details: Homo sapiens
CCRF-CEM = test: NCI60 five-dose screen; details: Homo sapiens
HCT-116 = test: NCI60 one-dose screen; details: Homo sapiens
OVCAR-3 = test: NCI60 one-dose screen; details: Homo sapiens
DU-145 [8] = test: NCI60 one-dose screen; details: Homo sapiens
NCI-H226 [9] = test: NCI60 five-dose screen; details: Homo sapiens
[10] = test system: 60 human tumor cell lines (NCI60); test: NCI60 one-dose screen, overall mean; details: for activity at 10 µM: Homo sapiens, read-out: Mean growth percent
RXF 393 [11] = test: NCI60 one-dose screen; details: Homo sapiens
OVCAR-5 [12] = test: NCI60 five-dose screen; details: Homo sapiens
NCI/ADR-RES = test: NCI60 one-dose screen; details: Homo sapiens, read-out: Growth percent
A498 [13] = test: NCI60 one-dose screen; details: Homo sapiens
OVCAR-4 = test: NCI60 five-dose screen; details: Homo sapiens
CAKI-1 [14] = test: NCI60 five-dose screen; details: Homo sapiens
COLO 205 = test: NCI60 five-dose screen; details: Homo sapiens
786-0 = test: NCI60 five-dose screen; details: Homo sapiens
T-47D = test: NCI60 one-dose screen; details: Homo sapiens, T47D, read-out: Growth percent
NCI-H460 = test: NCI60 five-dose screen; details: Homo sapiens
RPMI-8226 = test: NCI60 five-dose screen; details: Homo sapiens
UACC-62 = test: NCI60 five-dose screen; details: Homo sapiens
HCC-2998 = test: NCI60 five-dose screen; details: Homo sapiens
HT29 [15] = test: NCI60 one-dose screen; details: Homo sapiens
HS 578T = test: NCI60 five-dose screen; details: Homo sapiens
HT29 [16] = test: NCI60 five-dose screen; details: Homo sapiens, HT-29
UO-31 = test: NCI60 one-dose screen; details: Homo sapiens
OVCAR-5 [17] = test: NCI60 one-dose screen; details: Homo sapiens

CC[C@]12C=CCN3CC[C@@]4(c5ccc(OC)cc5N(C)[C@H]4[C@@](O)(C(=O)OC)[C@@H]1OC(=O)CCC[P+](c1ccc(OC)cc1)(c1ccc(OC)cc1)c1ccc(OC)cc1)[C@@H]32 [9b] gave an activity at 10 µM (HOP-62; HOP-62, 10 μM, one-dose, read-out: Growth percent) of -81.5%, an activity at 10 µM (BT-549 [1]; BT-549, 10 μM, one-dose, read-out: Growth percent) of -96.6% and an activity at 10 µM (CAKI-1 [2]; CAKI-1, 10 μM, one-dose, read-out: Growth percent) of -93.3%. For the same compound, the activity at 10 µM (NCI-H226 [3]; NCI-H226, 10 μM, one-dose, read-out: Growth percent) was -80.3%, the activity at 10 µM (MDA-MB-231/ATCC; MDA-MB-231/ATCC, 10 μM, one-dose, read-out: Growth percent) was -97% and the activity at 10 µM (U251; U-251, U251, 10 μM, one-dose, read-out: Growth percent) was -93.7%. For the same compound, the activity at 10 µM (EKVX; 10 μM, one-dose) was -85%, the activity at 10 µM (LOX IMVI; 10 μM, one-dose) was -96.4% and the GI50 (A498 [4]; A498, Renal Cancer, five-dose, read-out: GI50) was 2340 nM. For the same compound, the GI50 (Breast Cancer panel; mean over Breast Cancer panel, read-out: Mean GI50) was 640 nM, the activity at 10 µM (HCT-15; HCT-15, 10 μM, one-dose, read-out: Growth percent) was -86.3% and the GI50 (CNS Cancer panel; mean over CNS Cancer panel, read-out: Mean GI50) was 1020 nM. For the same compound, the GI50 (SW-620; SW-620, Colon Cancer, five-dose, read-out: GI50) was 844 nM, the activity at 10 µM (MDA-MB-468; MDA-MB-468, 10 μM, one-dose, read-out: Growth percent) was -92.1% and the activity at 10 µM (ACHN; 10 μM, one-dose) was -95.8%. It also gave an activity at 10 µM (PC-3; PC-3, 10 μM, one-dose, read-out: Growth percent) of -78.8%, a GI50 (BT-549 [5]; BT-549, Breast Cancer, five-dose, read-out: GI50) of 1050 nM and a GI50 (MOLT-4; MOLT-4, Leukemia, five-dose, read-out: GI50) of 933 nM. For the same compound, the GI50 (HOP-92; HOP-92, Non-small Cell Lung Cancer, five-dose, read-out: GI50) was 344 nM, the GI50 (DU-145 [6]; DU-145, Prostate Cancer, five-dose, read-out: GI50) was 955 nM and the activity at 10 µM (HL-60(TB); HL-60(TB), 10 μM, one-dose, read-out: Growth percent) was -39.6%. For the same compound, the GI50 (RXF 393 [7]; RXF 393, Renal Cancer, five-dose, read-out: GI50) was 482 nM, the GI50 (CCRF-CEM; Leukemia, five-dose, read-out: GI50) was 887 nM and the activity at 10 µM (HCT-116; HCT-116, 10 μM, one-dose, read-out: Growth percent) was -68.8%. It also gave an activity at 10 µM (OVCAR-3; OVCAR-3, 10 μM, one-dose, read-out: Growth percent) of -73.6%, an activity at 10 µM (DU-145 [8]; DU-145, 10 μM, one-dose, read-out: Growth percent) of -75.4% and a GI50 (NCI-H226 [9]; NCI-H226, Non-small Cell Lung Cancer, five-dose, read-out: GI50) of 1430 nM. For the same compound, the activity at 10 µM ([10]; mean over 60 cell lines, 10 μM, one-dose) was -76.2%, the “average reduction / average cell death” value ([10]; one-dose, 10 µM, average over cell lines) was “more than 70%” and the activity at 10 µM (RXF 393 [11]; RXF 393, 10 μM, one-dose, read-out: Growth percent) was -92.6%. It also gave a GI50 (OVCAR-5 [12]; OVCAR-5, Ovarian Cancer, five-dose, read-out: GI50) of 1770 nM, an activity at 10 µM (NCI/ADR-RES; 10 μM, one-dose) of 79.9% and an activity at 10 µM (A498 [13]; A498, 10 μM, one-dose, read-out: Growth percent) of -83.2%. The GI50 (OVCAR-4; OVCAR-4, Ovarian Cancer, five-dose, read-out: GI50) was 760 nM, the GI50 (CAKI-1 [14]; CAKI-1, Renal Cancer, five-dose, read-out: GI50) was 13700 nM and the GI50 (COLO 205; COLO 205, COLO 205, Colon Cancer, five-dose, read-out: GI50) was 194 nM. For the same compound, the GI50 (786-0; 786-0, Renal Cancer, five-dose, read-out: GI50) was 1930 nM, the activity at 10 µM (T-47D; T-47D, 10 μM, one-dose) was -61.4% and the GI50 (NCI-H460; NCI-H460, Non-small Cell Lung Cancer, five-dose, read-out: GI50) was 666 nM. For the same compound, the GI50 (RPMI-8226; RPMI-8226, Leukemia, five-dose, read-out: GI50) was 275 nM, the GI50 (UACC-62; UACC-62, Melanoma, five-dose, read-out: GI50) was 603 nM and the GI50 (HCC-2998; HCC-2998, Colon Cancer, five-dose, read-out: GI50) was 498 nM. The activity at 10 µM (HT29 [15]; HT-29, HT29, 10 μM, one-dose, read-out: Growth percent) was -84.3%, the GI50 (HS 578T; HS 578T, Breast Cancer, five-dose, read-out: GI50) was 1180 nM and the GI50 (HT29 [16]; HT29, Colon Cancer, five-dose, read-out: GI50) was 371 nM. The activity at 10 µM (UO-31; UO-31, 10 μM, one-dose, read-out: Growth percent) was -56.8% and the activity at 10 µM (OVCAR-5 [17]; OVCAR-5, 10 μM, one-dose, read-out: Growth percent) was -96.5%.

CC[C@]12C=CCN3CC[C@@]4(c5ccc(OC)cc5N(C)[C@H]4[C@@](O)(C(=O)OC)[C@@H]1OC(=O)CCCC[P+](C1CCCCC1)(C1CCCCC1)C1CCCCC1)[C@@H]32 [10d] gave an activity at 10 µM (HOP-62; HOP-62, read-out: Growth percent) of 9.52%, an activity at 10 µM (BT-549 [1]; BT-549, read-out: Growth percent) of -97.4% and an activity at 10 µM (CAKI-1 [2]; CAKI-1, read-out: Growth percent) of -24.1%. The activity at 10 µM (NCI-H226 [3]; NCI-H226, read-out: Growth percent) was -22%, the activity at 10 µM (MDA-MB-231/ATCC; MDA-MB-231, read-out: Growth percent) was -92.8% and the activity at 10 µM (U251; U-251, read-out: Growth percent) was -87.9%. It also gave an activity at 10 µM (EKVX) of 13.2%, an activity at 10 µM (LOX IMVI) of -96.1% and a GI50 (A498 [4]; A498) of 13300 nM. The GI50 (Breast Cancer panel; read-out: GI50 Mean) was 1480 nM, the activity at 10 µM (HCT-15; HCT-15, read-out: Growth percent) was 75.2% and the GI50 (CNS Cancer panel; read-out: GI50 Mean) was 2600 nM. The GI50 (SW-620; SW-620) was 2750 nM, the activity at 10 µM (MDA-MB-468; MDA-MB-468, read-out: Growth percent) was -79% and the activity at 10 µM (ACHN) was 18.7%. For the same compound, the activity at 10 µM (PC-3; PC-3, read-out: Growth percent) was 3.69%, the GI50 (BT-549 [5]; BT-549) was 2450 nM and the GI50 (MOLT-4; MOLT-4) was 1720 nM. It also gave a GI50 (HOP-92; HOP-92) of 1020 nM, a GI50 (DU-145 [6]; DU-145) of 3650 nM and an activity at 10 µM (HL-60(TB); HL-60, read-out: Growth percent) of -36.7%. It also gave a GI50 (RXF 393 [7]; RXF 393) of 1240 nM, a GI50 (CCRF-CEM) of 2550 nM and an activity at 10 µM (HCT-116; HCT-116, read-out: Growth percent) of 4.69%. The activity at 10 µM (OVCAR-3; OVCAR-3, read-out: Growth percent) was -60.3%, the activity at 10 µM (DU-145 [8]; DU-145, read-out: Growth percent) was 9.57% and the GI50 (NCI-H226 [9]; NCI-H226) was 4410 nM. It also gave an activity at 10 µM ([10]; 60 cell) of -36.6%, an activity at 10 µM (RXF 393 [11]; RXF 393, read-out: Growth percent) of -73.8% and a GI50 (OVCAR-5 [12]; OVCAR-5) of 3190 nM. For the same compound, the activity at 10 µM (NCI/ADR-RES) was 96.7%, the activity at 10 µM (A498 [13]; A498, read-out: Growth percent) was -0.04% and the GI50 (OVCAR-4; OVCAR-4) was 2720 nM. It also gave a GI50 (CAKI-1 [14]; CAKI-1) of 16700 nM, a GI50 (COLO 205; COLO 205) of 377 nM and a GI50 (786-0; 786-0) of 5430 nM. For the same compound, the activity at 10 µM (T-47D) was 3.83%, the GI50 (NCI-H460; NCI-H460) was 2710 nM and the GI50 (RPMI-8226; RPMI-8226) was 412 nM. For the same compound, the GI50 (UACC-62; UACC-62) was 1530 nM, the GI50 (HCC-2998; HCC 2998) was 1310 nM and the activity at 10 µM (HT29 [15]; HT-29, read-out: Growth percent) was -24%. It also gave a GI50 (HS 578T; Hs-578T) of 2610 nM, a GI50 (HT29 [16]) of 1430 nM and an activity at 10 µM (UO-31; UO-31, read-out: Growth percent) of 78.9%. For the same compound, the activity at 10 µM (OVCAR-5 [17]; OVCAR-5, read-out: Growth percent) was 5.84%.
